Measurements from US10087185B2 (Janssen Pharmaceutica NV, priority 2016, dated 2018).

Target: TARP γ8 dependent AMPA receptor (GRIA1o-CACNG8 fusion construct) (Homo sapiens (Human), UniProt P42261+Q8WXS5)
Experiment: Calcium flux assay (FLIPR), inhibition of glutamate response of GluA1o-γ8 channel
Format: cell-based
Settings: HEK293 cells stably expressing GRIA1o-CACNG8 fusion; calcium flux after 15 μM glutamate; negative log of the IC50 in molar
From the text: This assay was used to test compounds for their ability to inhibit TARP γ8 dependent AMPA receptor activity. The AMPA receptor is a non-selective cation channel activated by glutamate. […] But, this desensitization is incomplete, and a substantial steady-state current remains in the sustained presence of glutamate (Cho et al. (2007). “Two families of TARP isoforms that have distinct effects on the kinetic properties of AMPA receptors and synaptic currents.” Neuron 55(6): 890-904).
An in vitro assay was used to determine the potency of test compounds as inhibitors of the glutamate response of the channel formed by GluA10-γ8. To ensure a 1:1 stoichiometry of GluA1o and γ8 subunits in the expressed channel, a fusion of the cDNAs for GRIA1o and CACNG8 was used. Following Shi et al (2009) “The stoichiometry of AMPA receptors and TARPs varies by neuronal cell type.” Neuron 62(5): 633-640), the C-terminus of the cDNA for GRIA1o was fused to the N-terminus of the cDNA for γ8. The linker sequence was […]. Channels expressed with this construct appear to have similar properties to channels formed by co-expression of GRIA1o with an excess of CACNG8 (Shi et al. 2009). A clonal cell line in HEK293 cells stably expressing this construct, with a geneticin selection marker, was generated for use in this assay.
Cell expressing the GRIA1o-CACNG8 fusion construct were grown in a monolayer in 96- or 384-well microtiter plates. They were washed with assay buffer (135 mM NaCl, 4 mM KCl, 3 mM CaCl2, 1 mM MgCl2, 5 mM glucose, 10 mM HEPES, pH 7.4, 300 mOs) using a Biotek EL405 plate washer. The cells were then loaded with a calcium-sensitive dye (Calcium-5 or Calcium-6, Molecular Devices) and the test compounds at a range of concentrations. Calcium flux following the addition of 15 μM glutamate was monitored using a Molecular Devices FLIPR Tetra.
The fluorescence in each well was normalized to the fluorescence of negative and positive control wells. The negative control wells had no added compounds, and the positive control wells had been incubated with 10 μM CP465022 (a non-subtype-selective AMPA receptor antagonist) (Lazzaro et al. (2002). “Functional characterization of CP-465,022, a selective, noncompetitive AMPA receptor antagonist.” Neuropharmacology 42(2): 143-153). The responses to glutamate as functions of the test compound concentrations were fitted to a four-parameter logistic function. The fitted parameter corresponding to the midpoint was taken to be the potency of inhibition of the compound. The data in Table 4 below illustrates the observed potency for the compounds described herein. pIC50 refers to the negative log of the IC50 in molar.

TARP γ8 dependent AMPA receptor (GRIA1o-CACNG8 fusion construct), sequence (P42261 other isoform, or with tags, fused parts or gaps): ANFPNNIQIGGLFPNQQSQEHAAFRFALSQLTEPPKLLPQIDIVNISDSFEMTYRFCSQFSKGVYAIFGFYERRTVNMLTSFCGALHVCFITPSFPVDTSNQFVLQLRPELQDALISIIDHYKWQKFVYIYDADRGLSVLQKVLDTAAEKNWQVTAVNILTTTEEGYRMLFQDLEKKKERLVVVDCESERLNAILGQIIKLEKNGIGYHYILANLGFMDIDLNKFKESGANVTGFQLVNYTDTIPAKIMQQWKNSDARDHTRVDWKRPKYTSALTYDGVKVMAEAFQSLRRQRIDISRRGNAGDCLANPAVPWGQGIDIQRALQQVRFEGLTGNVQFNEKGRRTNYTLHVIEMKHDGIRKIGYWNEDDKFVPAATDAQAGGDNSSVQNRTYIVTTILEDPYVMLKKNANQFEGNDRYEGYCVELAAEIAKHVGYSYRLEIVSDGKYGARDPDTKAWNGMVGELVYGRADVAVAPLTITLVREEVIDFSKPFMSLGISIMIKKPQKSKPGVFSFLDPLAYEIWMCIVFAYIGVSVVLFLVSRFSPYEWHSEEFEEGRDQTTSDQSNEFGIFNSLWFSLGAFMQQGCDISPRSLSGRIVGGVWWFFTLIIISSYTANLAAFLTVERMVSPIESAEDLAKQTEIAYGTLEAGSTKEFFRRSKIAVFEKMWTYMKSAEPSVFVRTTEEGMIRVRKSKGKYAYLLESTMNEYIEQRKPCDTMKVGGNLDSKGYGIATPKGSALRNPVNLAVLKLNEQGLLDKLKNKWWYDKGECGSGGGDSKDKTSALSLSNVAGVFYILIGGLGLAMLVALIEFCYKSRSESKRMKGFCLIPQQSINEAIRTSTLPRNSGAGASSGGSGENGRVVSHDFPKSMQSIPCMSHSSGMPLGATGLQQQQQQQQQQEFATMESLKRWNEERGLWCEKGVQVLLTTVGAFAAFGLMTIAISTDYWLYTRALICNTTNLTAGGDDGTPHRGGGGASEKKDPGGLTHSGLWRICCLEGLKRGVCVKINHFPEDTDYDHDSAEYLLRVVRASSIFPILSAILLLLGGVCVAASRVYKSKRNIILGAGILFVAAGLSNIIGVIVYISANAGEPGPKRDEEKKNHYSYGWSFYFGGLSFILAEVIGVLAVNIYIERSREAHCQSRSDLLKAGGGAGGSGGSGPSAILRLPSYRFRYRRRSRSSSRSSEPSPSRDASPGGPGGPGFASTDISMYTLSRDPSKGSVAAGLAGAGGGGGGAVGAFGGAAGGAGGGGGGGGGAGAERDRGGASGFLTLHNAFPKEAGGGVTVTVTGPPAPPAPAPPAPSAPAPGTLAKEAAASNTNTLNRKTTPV

| IC50 [nM] | pIC50 | Compound |
| --- | --- | --- |
| 0.158 |  | Cc1cc(-c2c(C(F)F)ccc3nc(C(F)(F)F)nn23)cc2cn[nH]c12 [Example 17, 6-(Difluoromethyl)-5-(7-methyl-1H-indazol-5-yl)-2-(trifluoromethyl)-[1,2,4]triazolo[1,5-a]pyridine] |
| 0.316 |  | Cc1cc(-c2c(C(F)(F)F)ccc3nc(C4CC4)nn23)cc2cn[nH]c12 [Example 39, 2-Cyclopropyl-5-(7-methyl-1H-indazol-5-yl)-6-(trifluoromethyl)-[1,2,4]triazolo[1,5-a]pyridine] |
| 1 |  | CCc1cc(C(F)F)c(-c2cc(C)c3[nH]ncc3c2)n2nc(C(F)(F)F)nc12 [Example 92, 6-(Difluoromethyl)-8-ethyl-5-(7-methyl-1H-indazol-5-yl)-2-(trifluoromethyl)-[1,2,4]triazolo[1,5-a]pyridine] |
| 0.501 |  | CCc1cc(C(F)F)c(-c2cc(Cl)c3[nH]ncc3c2)n2nc(C(F)(F)F)nc12 [Example 91, 5-(7-Chloro-1H-indazol-5-yl)-6-(difluoromethyl)-8-ethyl-2-(trifluoromethyl)-[1,2,4]triazolo[1,5-a]pyridine] |
| 0.2 |  | CCCc1nc2c(C)cc(C(F)(F)F)c(-c3cc(Cl)c4[nH]ncc4c3)n2n1 [Example 83, 5-(7-Chloro-1H-indazol-5-yl)-8-methyl-2-propyl-6-(trifluoromethyl)-[1,2,4]triazolo[1,5-a]pyridine] |
| 3.16 |  | COc1nc2ccc(C(F)(F)F)c(-c3cc(Cl)c4[nH]ncc4c3)n2n1 [Example 43, 5-(7-Chloro-1H-indazol-5-yl)-2-methoxy-6-(trifluoromethyl)-[1,2,4]triazolo[1,5-a]pyridine] |
| 0.1 |  | Cc1cc(C(F)F)c(-c2cc(Cl)c3[nH]ncc3c2)n2nc(C(F)(F)F)cc12 [Example 125, 7-(7-Chloro-1H-indazol-5-yl)-6-(difluoromethyl)-4-methyl-2-(trifluoromethyl)pyrazolo[1,5-a]pyridine] |
| 3.98 |  | CCc1nc2ccc(C(F)F)c(-c3cc(C)c4c(c3)CC(=O)N4)n2n1 [Example 47, 5-(6-(Difluoromethyl)-2-ethyl-[1,2,4]triazolo[1,5-a]pyridin-5-yl)-7-methylindolin-2-one] |
| 0.0158 |  | Cc1cc(-c2c(C(F)(F)F)ccc3cc(C(C)C)nn23)cc2c1NC(=O)C2 [Example 71, 5-(2-Isopropyl-6-(trifluoromethyl)pyrazolo[1,5-a]pyridin-7-yl)-7-methylindolin-2-one] |
| 0.398 |  | CCc1nc2c(C)cc(C(F)(F)F)c(-c3cc(Cl)c4[nH]ncc4c3)n2n1 [Example 35, 5-(7-Chloro-1H-indazol-5-yl)-2-ethyl-8-methyl-6-(trifluoromethyl)-[1,2,4]triazolo[1,5-]pyridine] |
| 0.0631 |  | FC(F)c1nc2ccc(C(F)(F)F)c(-c3cc(Cl)c4[nH]ncc4c3)n2n1 [Example 7, 5-(7-Chloro-1H-indazol-5-yl)-2-(difluoromethyl)-6-(trifluoromethyl)-[1,2,4]triazolo[1,5-a]pyridine] |
| 0.0501 |  | Cc1cc(-c2c(C(F)(F)F)ccc3cc(C4CC4)nn23)cc2c1NC(=O)C2 [Example 67, 5-(2-Cyclopropyl-6-(trifluoromethyl)pyrazolo[1,5-a]pyridin-7-yl)-7-methylindolin-2-one] |
| 0.158 |  | Cc1cc(-c2c(C(F)(F)F)cc(C)c3nc(C4CC4)nn23)cc2cn[nH]c12 [Example 76, 2-Cyclopropyl-8-methyl-5-(7-methyl-1H-indazol-5-yl)-6-(trifluoromethyl)-[1,2,4]triazolo[1,5-a]pyridine] |
| 0.01 |  | CC(C)c1cc2ccc(C(F)(F)F)c(-c3cc(Cl)c4[nH]ncc4c3)n2n1 [Example 73, 7-Chloro-5-(2-isopropyl-6-(trifluoromethyl)pyrazolo[1,5-a]pyridin-7-yl)-1H-indazole] |
| 3.16 |  | CCCc1nc2c(C)cc(C(F)F)c(-c3cc(C)c4[nH]ncc4c3)n2n1 [Example 95, 6-(Difluoromethyl)-8-methyl-5-(7-methyl-1H-indazol-5-yl)-2-propyl-[1,2,4]triazolo[1,5-a]pyridine] |
| 5.01 |  | COc1ccc2nc(C(F)(F)F)nn2c1-c1cc(C)c2[nH]ncc2c1 [Example 51, 6-Methoxy-5-(7-methyl-1H-indazol-5-yl)-2-(trifluoromethyl)-[1,2,4]triazolo[1,5-a]pyridine] |

| IC50 [nM] | pIC50 | Compound |
| --- | --- | --- |
| 0.2 |  | Cc1cc(-c2c(C(F)(F)F)ccc3nc(C(F)(F)F)nn23)cc2cn[nH]c12 [Example 2, 5-(7-Methyl-1H-indazol-5-yl)-2,6-bis(trifluoromethyl)-[1,2,4]triazolo[1,5-a]pyridine] |
| 0.631 |  | Cc1nc2ccc(C(F)(F)F)c(-c3cc(Cl)c4[nH]ncc4c3)n2n1 [Example 21, 5-(7-Chloro-1H-indazol-5-yl)-2-methyl-6-(trifluoromethyl)-[1,2,4]triazolo[1,5-a]pyridine] |
| 20 |  | Cc1nc2ccc(C(F)(F)F)c(-c3cc(C)c4c(c3)CC(=O)N4)n2n1 [Example 24, 7-Methyl-5-(2-methyl-6-(trifluoromethyl)-[1,2,4]triazolo[1,5-a]pyridin-5-yl)indolin-2-one] |
| 3.98 |  | CCc1nc2ccc(C(F)(F)F)c(-c3cc(C)c4c(c3)CC(=O)N4)n2n1 [Example 28, 5-(2-Ethyl-6-(trifluoromethyl)-[1,2,4]triazolo[1,5-a]pyridin-5-yl)-7-methylindolin-2-one] |
| 0.251 |  | Cc1cc(C(F)F)c(-c2cc(Cl)c3[nH]ncc3c2)n2nc(C(F)(F)F)nc12 [Example 77, 5-(7-Chloro-1H-indazol-5-yl)-6-(difluoromethyl)-8-methyl-2-(trifluoromethyl)-[1,2,4]triazolo[1,5-a]pyridine] |
| 0.631 |  | CCc1nc2c(C)cc(C(F)(F)F)c(-c3cc(Cl)c4c(c3)CC(=O)N4)n2n1 [Example 100, 7-Chloro-5-(2-ethyl-8-methyl-6-(trifluoromethyl)-[1,2,4]triazolo[1,5-a]pyridin-5-yl)indolin-2-one] |
| 0.794 |  | Cc1cc(C(F)F)c(-c2cc(Cl)c3c(c2)CC(=O)N3)n2nc(C(F)(F)F)nc12 [Example 110, 7-Chloro-5-(6-(difluoromethyl)-8-methyl-2-(trifluoromethyl)-[1,2,4]triazolo[1,5-a]pyridin-5-yl)indolin-2-one] |
| 0.158 |  | CCc1cc(C(F)F)c(-c2cc(Cl)c3[nH]ncc3c2)n2nc(C3CC3)nc12 [Example 93, 5-(7-Chloro-1H-indazol-5-yl)-2-cyclopropyl-6-(difluoromethyl)-8-ethyl-[1,2,4]triazolo[1,5-a]pyridine] |
| 0.0126 |  | CC(C)c1cc2ccc(C(F)(F)F)c(-c3cc(Cl)c4c(c3)CC(=O)N4)n2n1 [Example 72, 5-(2-Isopropyl-6-(trifluoromethyl)pyrazolo[1,5-a]pyridin-7-yl)-7-chloroindolin-2-one] |
| 5.01 |  | COc1ccc2nc(C(F)F)nn2c1-c1cc(C)c2[nH]ncc2c1 [Example 14, 2-(Difluoromethyl)-6-methoxy-5-(7-methyl-1H-indazol-5-yl)-[1,2,4]triazolo[1,5-a]pyridine] |
| 0.398 |  | CCc1cc(C(F)(F)F)c(-c2cc(Cl)c3[nH]ncc3c2)n2nc(C(F)F)nc12 [Example 87, 5-(7-Chloro-1H-indazol-5-yl)-2-(difluoromethyl)-8-ethyl-6-(trifluoromethyl)-[1,2,4]triazolo[1,5-a]pyridine] |
| 0.398 |  | Cc1cc(-c2c(C(F)(F)F)ccc3nc(C(F)F)nn23)cc2cn[nH]c12 [Example 8, 5-(7-Methyl-1H-indazol-5-yl)-2-(difluoromethyl)-6-(trifluoromethyl)-[1,2,4]triazolo[1,5-a]pyridine] |
| 0.0631 |  | Cc1cc(-c2c(-c3ccc(F)cc3)ccc3nc(C(F)(F)F)nn23)cc2c1NC(=O)C2 [Example 57, 5-(6-(4-Fluorophenyl)-2-(trifluoromethyl)-[1,2,4]triazolo[1,5-a]pyridin-5-yl)-7-methylindolin-2-one] |
| 2.51 |  | Cc1nc2c(C)cc(C(F)(F)F)c(-c3cc(Cl)c4[nH]ncc4c3)n2n1 [Example 116, 5-(7-Chloro-1H-indazol-5-yl)-2,8-dimethyl-6-(trifluoromethyl)-[1,2,4]triazolo[1,5-a]pyridine] |
|  | 9.6 | Cc1cc(C(F)F)c(-c2cc(Cl)c3[nH]ncc3c2)n2nc(C(F)(F)F)nc12 [Example 109, 5-(7-Chloro-1H-indazol-5-yl)-6-(difluoromethyl)-8-methyl-2-(trifluoromethyl)-[1,2,4]triazolo[1,5-a]pyridine] |
